Experiment [1] concerns rat brain cortex neurotransmitters. The experiment in a line: effects of an HCA extract and fluoxetine on rat brain cortex neurotransmitters (reverse phase HPLC with electrochemical detection). Format: in vivo. Conditions: for decrease in cortex HIAA / decrease in cortex 5-HT / decrease in DA / decrease in cortex HVA: 15 mg/kg per day oral; for decrease in cortex HIAA / decrease in DA / decrease in cortex HVA / increase in DOPAC / increase in cortex DA / increase in cortex 5-HT: p<0.05; for increase in DOPAC / increase in cortex DA / increase in cortex 5-HT: after 90 days. How it is done:
[…] The 5% HCA dose corresponds to 25-times the recommended dose of HCA. Animals were euthanized after 30, 60 and 90 days. Brain cortices were analyzed for serotonin (5-HT), its metabolite 5-hydroxyindoleacetic acid (HIAA), dopamine (DA), and its metabolites 3, 4-dihydroxyphenylacetic acid (DOPAC) and homovanillic acid (HVA) content utilizing reverse phase HPLC with electrochemical detection.

The subject of experiment [2] is isolated rat brain cortex. The following applies: cited from earlier work.
[3] abbreviates: first of three values (day 30 by analogy with b27).
[4] abbreviates: second of three values (day 60 by analogy with b27).
[5] abbreviates: third of three values (day 90 by analogy with b27).

For `CNCCC(Oc1ccc(C(F)(F)F)cc1)c1ccccc1` (centres unmarked) [fluoxetine, reference compound], the “decrease in cortex HIAA” value in experiment [1] (30 days post-treatment) is listed as 19%; in experiment [1] (60 days post-treatment), 15%; in experiment [1] (90 days post-treatment), 17%. In addition, the “decrease in cortex 5-HT” value is listed as 9% in experiment [1] (day 30, p<0.05); 7% in experiment [1] (day 60, p<0.05); 8% in experiment [1] (day 90, p<0.05). Besides, the “decrease in DA” value in experiment [1] (setting [3]) came out at 18%; in experiment [1] (setting [4]), 15%; in experiment [1] (setting [5]), 19%. Moreover, the entries for the “decrease in cortex HVA” value in experiment [1] (setting [3]), in experiment [1] (setting [4]) and in experiment [1] (setting [5]) were 17%, 13% and 14%, respectively. Further, the “changes in cortex DOPAC” value in experiment [1] (all fluoxetine groups (15 mg/kg per day oral; 30, 60, 90 days)) is reported as “No changes”.

`O=C(O)CC(O)(C(=O)O)C(O)C(=O)O` (single isomer, unassigned; (-)) [HCA, (−)-hydroxycitric acid]: in experiment [2] (HCA applied on its own), the “efflux of 5-HT” value was “concentration-dependent increase”. Besides, the “effect on baseline of spontaneous tritium efflux” value in experiment [2] was “altered the baseline”. Further, the “effect on potassium-evoked release of 5-HT” value in experiment [2] is “no significant effect”. Also, the “increase in DOPAC” value in experiment [1] (HCA 0.02% oral) came out at 23%; in experiment [1] (HCA 2% of diet oral), 26%; in experiment [1] (HCA 5% of diet oral), 29%. In addition, the “increase in cortex DA” value in experiment [1] (HCA 0.02% oral) is 10%; in experiment [1] (HCA 2% of diet oral) it was 15%; in experiment [1] (HCA 5% of diet oral), 18%. The “increase in cortex HVA” value in experiment [1] (HCA 0.02% oral, day 90, p<0.05) is 12%; in experiment [1] (HCA 2% of diet oral, day 90, p<0.05), 15%; in experiment [1] (HCA 5% of diet oral, day 90, p<0.05), 13%. Moreover, the “increase in cortex 5-HT” value in experiment [1] (HCA 0.2% of diet (10 mg per day) oral) came to 11%; in experiment [1] (HCA 2% of diet (100 mg per day) oral), 9%; in experiment [1] (HCA 5% of diet (250 mg per day) oral), 12%. The “changes in HIAA” value in experiment [1] (any of the HCA treatment groups (0.2, 2, 5% of diet; 30, 60, 90 days)) is “No changes”.

Source of the values: patent US20050215644A1, “Methods for increasing neurotransmitter levels using hydroxycitric acid” (InterHealth Nutraceuticals, Inc., priority 2004, published 2005).
